Laboratory results published in the NIST ThermoML archive (doi:10.1016/j.fluid.2008.03.020).
± gives the expanded uncertainty stated by the source.

Legend:
[1] = Liquid
[2] = refractive index (Na D-line) (dimensionless); details: Liquid, Standard Abbe refractometry

SMILES | mass density ([1]; 293.15 K) [kg/m3] | refractive index ([2]; 293.15 K) | mass density ([1]; 298.15 K) [kg/m3] | refractive index ([2]; 298.15 K) | also measured
ClCCCl [1,2-dichloroethane] | 1252.9 ± 3.4 | 1.4196 ± 0.0007 |  |  | vapor or sublimation pressure ([1]; 355.15 K): 95.5 ± 2 kPa
Clc1ccccc1 [chlorobenzene] |  |  | 1101 ± 3 | 1.5218 ± 0.0007 | vapor or sublimation pressure ([1]; 402.85 K): 95.5 ± 2 kPa
O=[N+]([O-])c1ccccc1 [nitrobenzene] |  |  | 1198.3 ± 3.3 | 1.55 ± 0.0007 | vapor or sublimation pressure ([1]; 481.45 K): 95.5 ± 2 kPa
C=CC#N [acrylonitrile] |  |  | 800.3 ± 2 | 1.3887 ± 0.0007 | vapor or sublimation pressure ([1]; 348.75 K): 95.5 ± 2 kPa
ClC(Cl)C(Cl)Cl [1,1,2,2-tetrachloroethane] | 1593 ± 4.5 | 1.494 ± 0.0007 |  |  | vapor or sublimation pressure ([1]; 417.25 K): 95.5 ± 2 kPa
